For the assay, the system named is RAW 264.7 macrophages. Kind of assay: LPS-induced cytokine production in macrophages (ELISA, Western). The conditions noted are these: for TNF-α: RAW 264.7 macrophages. The class given is cell-based, mouse. The text has this: Animals. Male C57BL/6 and IL-10 (−/−) mice were purchased from Jackson Laboratory (Bar Harbor, Me.), and allowed to acclimate for one week with rodent chow and water ad libitum. The MKK (−/−) mice were generated as previously described [Lu, et al., EMBO J. 18:1845-1857 (1999)]. Wild type littermates were used as controls. All animals were housed in accordance with guidelines from the American Association for Laboratory Animal Care and Research Protocols and were approved by the Animal Care and Use Committee of Yale University School of Medicine. Reagents. All reagents were purchased from Sigma Chemical Co. (St Louis, Mo.) unless specified otherwise. Plasmid Construct. Plasmid pSFFV/HO-1 was constructed by insertion of the rat HO-1 cDNA [Shibahara, et al., Proc. Natl. Acad. Sci. USA. 82: 7865-7869 (1985)] downstream of the Friend spleen focus-forming virus 5′ long-terminal repeat in the mammalian expression vector pSFFV/neo [Fuhlbrigge, et al, Proc. Natl. Acad. Sci. USA. 85: 5649-5653 (1988)] (kindly provided by Stanley Korsmeyer). Transfection. Stable transfections were carried out by the calcium phosphate precipitation technique as previously described [Alam, J., J. Biol. Chem. 269: 25049-25056 (1994)]. Briefly, RAW cells were plated (1×10^6/10 cm plate) and 16 h later, transfected with […] of pSFFV/neo or pSFFV/HO-1. Cells were exposed to the DNA-CaPO4 precipitate for 6 h, shocked by a 1 min treatment with glycerol in phosphate-buffered saline and cultured for an additional 24 h in complete medium before addition of G418. Transfectants were selected over a 3-week period in the presence of G418 (up to […]) and individual clones were isolated by limited dilution. Cell Culture Experimentation. RAW 264.7 mouse peritoneal macrophages were purchased from […] (Rockville, Md.) and primary culture of rat pulmonary vascular smooth muscle cells were harvested from male Sprague Dawley rats (250-300 g) as previously described [Gunther, et al., J. Cell. Biol. 92: 289-298 (1982).]. Both cell types were grown in DMEM containing 10% FBS and gentamicin ([…]) in a humidified atmosphere of 5% CO2/balanced air or 250 ppm CO/5% CO2/balanced air. After a 2 h pretreatment with either CO or air, LPS ([…]) or sterile saline was added to the culture media and the culture plates were returned to the chamber(s). At various time points, cell plates were removed from the chamber to collect media and/or cells for Western analysis. CO Exposures. Mice or macrophages were exposed to compressed air or 250 ppm CO. For cell culture experiments, 5% CO2 was also present for buffering requirements. CO at a concentration of 1% (10,000 ppm) in compressed air was mixed with compressed air with or without CO2 in a stainless steel mixing cylinder before delivery into the exposure chamber. Flow into the 3.70-ft^2 plexiglass animal chamber was maintained at 12 L/min and into the 1.2 ft^2 cell culture chamber at a flow of 2 L/min. The cell culture chamber was humidified and maintained at 37° C. A CO analyzer (Interscan, Chatsworth, Calif.) was used to measure CO levels continuously in the chambers. Gas samples were taken by the analyzer through a port in the top of the chambers at a rate of 1 L/min and analyzed by electrochemical detection, with a sensitivity of 10-600 ppm. Concentration levels were measured hourly and there were no fluctuations in the CO concentrations once the chamber had equilibrated (approximately 5 min). Animal Experimentation. Mice were prebled from the retroorbital sinus (0.25 ml) and then exposed to CO (250 ppm) or room air for 1 h prior to administration of LPS (1 mg/kg, i.p.), E. coli serotype O127:B8. 1 and 16 h thereafter, they were removed from the exposure apparatus individually and a blood sample was obtained via the retroorbital sinus. After the blood collection, the mice were immediately returned to the exposure chamber. […]
Background: ELISA stands for enzyme-linked immunosorbent assay.

With `Nc1nc2c(nc(Br)n2[C@@H]2O[C@@H]3COP(=O)(O)O[C@H]3[C@H]2O)c(=O)[nH]1` [8-Br-cGMP, reference compound], the TNF-α runs as follows: (with LPS) 530 ± 35 pg/mL; (without LPS) 18 ± 6 pg/mL. Also, the “effect on LPS-induced TNF-α production” value (added to macrophage culture followed by LPS) was “no effect”.

The record behind these values is patent publication US7678390B2, “Carbon monoxide as a biomarker and therapeutic agent” (priority 1999, dated 2010).
